In the experiment the target is Amyloid-beta precursor protein (Homo sapiens, UniProt P05067). The experiment is described as follows: Binding affinity to Amyloid-beta (unknown origin) (1 to 42 residues) assessed as dissociation constant incubated for 30 mins by fluorescence based analysis.
Chain of Amyloid-beta precursor protein (P05067 whole entry, the tested form may be a part): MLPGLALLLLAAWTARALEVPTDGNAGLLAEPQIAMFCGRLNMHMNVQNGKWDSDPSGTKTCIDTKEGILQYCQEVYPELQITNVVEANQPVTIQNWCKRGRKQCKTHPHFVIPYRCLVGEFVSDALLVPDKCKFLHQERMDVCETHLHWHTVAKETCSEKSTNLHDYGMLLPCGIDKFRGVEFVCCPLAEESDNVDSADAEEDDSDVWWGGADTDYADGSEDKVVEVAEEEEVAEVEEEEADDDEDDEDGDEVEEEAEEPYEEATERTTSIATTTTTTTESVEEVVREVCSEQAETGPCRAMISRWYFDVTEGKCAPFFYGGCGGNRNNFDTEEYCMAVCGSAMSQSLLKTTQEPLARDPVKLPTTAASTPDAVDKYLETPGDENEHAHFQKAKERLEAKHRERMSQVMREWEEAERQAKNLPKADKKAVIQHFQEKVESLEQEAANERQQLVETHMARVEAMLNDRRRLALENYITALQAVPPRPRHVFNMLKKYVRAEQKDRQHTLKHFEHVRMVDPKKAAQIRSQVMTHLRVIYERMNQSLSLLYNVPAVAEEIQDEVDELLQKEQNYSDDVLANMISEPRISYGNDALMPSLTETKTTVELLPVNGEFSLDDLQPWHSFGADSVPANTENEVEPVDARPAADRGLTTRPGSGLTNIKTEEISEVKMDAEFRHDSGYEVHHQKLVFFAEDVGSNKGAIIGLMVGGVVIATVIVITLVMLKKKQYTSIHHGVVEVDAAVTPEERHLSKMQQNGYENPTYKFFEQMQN

In general, Kd refers to the free concentration of one partner at which half of the binding sites on the other are occupied at equilibrium, for simple one-to-one binding. As to `CCOC(=O)CN1C(=O)/C(=C/c2ccc3c(c2)Sc2ccccc2N3C)SC1=S`, the Kd was 7.5 nM.

The record behind these values is ChEMBL document CHEMBL5356946, “Recent progress of small-molecule-based theranostic agents in Alzheimer's disease” (RSC Med Chem, 2023).
